Source: PMC5177923 (2016)

How the values were obtained:
[1] = tested on: hTeloCFRET (DNA, i motif) TAACCCTAACCCTAACCCTAACCC; assay: FRET melting; details: 100 mM NaCl; 10 mM sodium cacodylate pH 6; 10 μM compound, 200 nM DNA
[2] = tested on: hTeloGFRET (DNA, G4) GGGTTAGGGTTAGGGTTAGGG; assay: FRET melting; details: 100 mM NaCl; 10 mM sodium cacodylate pH 7.4; 10 μM compound, 200 nM DNA
[3] = tested on: DSFRET (DNA, hairpin, HEG(18) linker (non-nucleotide) between 10 and 11) TATAGCTATATATAGCTATA; assay: FRET melting; details: 100 mM NaCl; 10 mM sodium cacodylate pH 7.4; 10 μM compound, 200 nM DNA
[4] = tested on: hTeloC (DNA, i motif) TAACCCTAACCCTAACCCTAACCC; assay: circular dichroism; details: 100 mM NaCl; 10 mM sodium cacodylate pH 5.5, 20 °C
[5] = tested on: hTeloCBiotin (DNA, i motif) TAACCCTAACCCTAACCCTAACCC; assay: SPR, equilibrium affinity fit, 1:1 model; details: 100 mM NaCl; 10 mM sodium cacodylate pH 5.5, 0.05% Tween-20, 5% DMSO, 25 °C
[6] = tested on: c-mycBiotin (DNA, i motif) CCTTCCCCACCCTCCCCACCCTCCCCA; assay: SPR, equilibrium affinity fit, 1:1 model; details: 100 mM NaCl; 10 mM sodium cacodylate pH 5.5, 0.05% Tween-20, 5% DMSO, 25 °C
[7] = tested on: DSBiotin (DNA, duplex) GGCATAGTGCGTGGGCGTTAGC/GCTAACGCCCACGCACTATGCC; assay: SPR, equilibrium affinity fit, 1:1 model; details: 100 mM NaCl; 10 mM sodium cacodylate pH 5.5, 0.05% Tween-20, 5% DMSO, 25 °C

Row | SMILES | ΔTm [1] | ΔTm [2] | ∆Tm [2] | ∆Tm [3] | binding [4] | Kd [5] [µM] | Kd [6] [µM] | Kd [7]
1 | CN(C)CCNc1cccc2c1C(=O)c1cccc(NCCNc3ccccc3)c1C2=O | +17 °C | +0.4 °C |  |  |  |  |  | 
2 | O=C1c2c(O)ccc(O)c2C(=O)c2c(NCCNCCO)ccc(NCCNCCO)c21 |  |  | +16 °C | +6.4 °C | yes | 12 ± 3 | 12 ± 3 | ~ 71 ± 22 μM
